Laboratory results as given in EP1222921B1, “Pharmaceutical compositions of tizoxanide and/or nitazoxanide” (Romark Laboratories, L.C., priority 1997, dated 1998).
Like-named read-outs stand apart in the source and are kept apart here.

What was measured:
Cryptosporidium parvum = experiment: Preliminary clinical trial in AIDS patients with chronic cryptosporidial diarrhea; format: in vivo; settings: of 16 evaluable by the eighth week, oral 500 to 2000 mg daily
Method: In a preliminary clinical trial, 30 AIDS patients with chronic cryptosporidial diarrhea were treated with oral nitazoxanide from 500 to 2000 mg daily. […] Twenty-eight people completed two or more weeks of therapy and 16 of those were evaluable for a therapeutic response by the eighth week of treatment. […] Six patients met both clinical and parasitological response criteria for benefit. Patients who received higher daily doses of drug for longer periods of time were more likely to have a positive response.

MDBKF5D2 cell monolayers = format: cell-based; settings: cattle
Method: The drug was incubated on the monolayers at 37°C and 8% CO2. At 24 hours (trial 1) and 48 hours (trial 2), MTS (Owen's solution) the PMS were added to each well at concentrations of 333 µg/ml and 25 µM respectively. The plate was returned to the incubator in the dark to develop for two hours. At two hours, 100 µl of each supernatant was transferred to a new microtiter plate and read in the ELISA reader at 490nm. Results were recorded and analyzed. Percent toxicity was calculated by subtracting the mean optical density (OD) of the drug supernatants from the mean optical density (OD) of the medium control supernatants (no drug), dividing by the OD of the medium control and multiplying by 100. (OD medium - OD drug)/(OD medium)x 100 [formula]

[1] = system: early mature (10-week/old) F. gigantica; experiment: Experimentally infected rabbits, early mature flukes; format: in vivo, Fasciola gigantica
Method: Nitazoxanide was tested against immature and mature Fasciola gigantica in experimentally infected rabbits. Fasciola gigantica encysted metacercariae (EMC) were collected on cellophane sheet after 28-35 days from infection of L. calludi snails by Fasciola gigantica miracidium using the technique described by […] snails were exposed daily to artificial light, for 30 minutes, in clean dechlorinated tap water. The resulting encysted […]) were preserved at 4°C in a refrigerator for 5 to 8 days under the surface of water until they were used to infect experimental animals. Forty (40) Boscat rabbits, weighting 1.5 to 2 kg each, were included in the study and allocated to two treatment groups of 20 animals. […] Ten animals from Group 2 received 35 mg of nitazoxanide, morning and evening, for 7 consecutive days 10 weeks after their infection at the mature stage of the parasite. The 10 remaining animals in Group 2 were kept as untreated controls. All animals were fed with dry ration until the end of the experiment. Seven days after administration of the last dose of nitazoxanide, all rabbits from each group were sacrificed. The surface of the liver was examined for the presence of necrotic migrating furrows especially at the immature stage of the parasite cycle. These necrotic areas were examined using two surgical needles in order to extract the juvenile migrating flukes according to the technique described by El-Bahy. The livers were sliced in small pieces especially around the migrating furrows and macerated under a microscope in order to extract the existing flukes. The abdominal cavity and the visceral surfaces were washed with warm water. The water was then collected, sieved and examined for identification of juvenile flukes. All the collected parasites as well as parts of them were counted in both treated and untreated animal in both Groups 1 and 2. […] The efficacy of nitazoxanide was calculated by using the formula indicated below: % efficacy(a - b)/(a)x 100 [formula] Where: • a = the number of flukes recovered from feces in the control animals • b = the number of flukes recovered from feces in the treated animals.

[2] = mean of 10 rabbits, 70 mg/day for 7 consecutive days

In the case of CC(=O)Oc1ccccc1C(=O)Nc1ncc([N+](=O)[O-])s1 [Nitazoxanide, 2-(acetolyloxy)-N-(5-nitro 2-thiazoly) benzamide], the “individuals with a marked reduction or eradication of the parasite in the stool” value (Cryptosporidium parvum) was 10, the “patients who met both clinical and parasitological response criteria” value (Cryptosporidium parvum) was “Six” and the “people with the organism becoming undetectable” value (Cryptosporidium parvum) was “four”. The “persons with a 50 percent or greater reduction in daily bowel movement frequency” value (Cryptosporidium parvum) was 12, the “Percent Toxicity” value (MDBKF5D2 cell monolayers; 24 h, 0.1 µg/ml) was 19.3% and the “Percent Toxicity” value (MDBKF5D2 cell monolayers; 24 h, 1 µg/ml) was 8.3%. The “Percent Toxicity” value (MDBKF5D2 cell monolayers; 24 h, 10 µg/ml) was 65.1%, the “Percent Toxicity” value (MDBKF5D2 cell monolayers; 24 h, 100 µg/ml) was 88.1% and the “Percent Toxicity” value (MDBKF5D2 cell monolayers; 48 h, 0.02 µg/ml) was 21.23%. For the same compound, the “Percent Toxicity” value (MDBKF5D2 cell monolayers; 48 h, 0.2 µg/ml) was 16.56%, the “Percent Toxicity” value (MDBKF5D2 cell monolayers; 48 h, 2 µg/ml) was 24.93% and the “Percent Toxicity” value (MDBKF5D2 cell monolayers; 48 h, 20 µg/ml) was 92.87%. For the same compound, the overall efficacy ([1]; 70 mg/day dose for 7 consecutive days) was “completely effective”, the “No. of flukes extracted from liver of Treated Rabbits” value ([1]; individual rabbits No. 1-10, 35 mg morning and evening for 7 consecutive days, 10 weeks after infection) was 0.0 and the Efficacy % ([1]; individual rabbits No. 1-10 versus untreated control, 35 mg morning and evening for 7 consecutive days) was 100%. The “Efficacy %, Mean (reduction)” value [1, 2] was 100% and the “No. of flukes extracted from liver of Treated Rabbits, Mean” value [1, 2] was 0.0.
